This note sets out measurements from ChEMBL document CHEMBL3507680, “University of Dundee, Gates Library screen for HepG2 cell viability”.

The data set can be described thus: Human HepG2 cell viability assay in 384 well format. The class given is toxicity, cell-based. Details: dose 125 nL, time 70.5 hour; concentration not given beside the values. The settings on record: HepG2 cells, read-out: Inhibition.

As for `CN1C(=O)CO[C@H]2CCN(C(=O)Cc3ccc4c(c3)CCCC4)CC[C@@H]21`, the cytotoxicity at 70.5 h was -4.91%.

Turning to `CC(C)N1C(=O)CO[C@H]2CCN(C(=O)c3ccc4c(c3)CCC4)CC[C@@H]21`, the cytotoxicity at 70.5 h is -3.57%.

On to `O=C(CCc1ccccc1F)NC1CCCN(c2ccccn2)C1` (stereo unspecified), for which the cytotoxicity at 70.5 h was -5.74%.

For the molecule `Cc1oc2c(c1C(=O)N1C[C@H](O)[C@]3(CCCO3)C1)CCCC2`, the cytotoxicity at 70.5 h is -3.22%.

Regarding `CC(C)N1CCC(Cn2cc(C(N)=O)cn2)CC1`, the cytotoxicity at 70.5 h was 11.9%.

Turning to `CCOc1ccc(CN2CCC(c3ccn[nH]3)C2)cc1CO` (stereo unspecified), the cytotoxicity at 70.5 h worked out at 3.78%.

Consider `CN(CC1CCOCC1)C1CCCN(c2ccccn2)C1` (stereo unspecified), for which the cytotoxicity at 70.5 h was -7.08%.

Take `COc1ccc2c(c1)C(=O)NC1(CC2)CCN(Cc2ccc(F)cc2)C1` (stereo unspecified): the cytotoxicity at 70.5 h stood at 5.75%.

Take `COc1ccc2c(c1)C(=O)NC1(CC2)CCN(Cc2ccccn2)C1` (stereo unspecified): the cytotoxicity at 70.5 h is -1%.

Consider `CN(C1CCCN(c2ccccn2)C1)S(=O)(=O)N1CCOCC1` (stereo unspecified), for which the cytotoxicity at 70.5 h was -2.35%.

As to `CC(C)N1CCOC(c2cc(CCO)[nH]n2)C1` (stereo unspecified), the cytotoxicity at 70.5 h was -1.76%.

Consider `C[C@@]1(O)CCN(C2CCOCC2)C[C@H]1n1ccc(=O)[nH]c1=O`, for which the cytotoxicity at 70.5 h was -3.9%.

As for `CC(C)n1nnc(CC(=O)NCC2(c3ccccc3F)CCCC2)n1`, the cytotoxicity at 70.5 h was -10.2%.

Turning to `Cc1cc(C)nc(Nc2cc(C)nc(C3CCN(C(C)C)C3)n2)n1` (stereo unspecified), the cytotoxicity at 70.5 h was -5.15%.

For the molecule `Cc1ncsc1-c1nnc(C2CCCN2C(=O)CCn2cccn2)o1` (stereo unspecified), the cytotoxicity at 70.5 h is -9.26%.

In the case of `CSCC[C@@H]1CN2CCC[C@H]2CN1Cc1coc2ccc(Cl)cc2c1=O`, the cytotoxicity at 70.5 h is -5.47%.

`CS(=O)(=O)NCC(=O)NC1CCCN(c2ccccn2)C1` (stereo unspecified): the cytotoxicity at 70.5 h was -9.78%.

In the case of `CNC(=O)c1sc2ccccc2c1CC1CCCCN1Cc1ncc[nH]1` (stereo unspecified), the cytotoxicity at 70.5 h is -7.25%.

As to `O=C1CN(C(=O)C2CN(c3cccc(F)c3)CCO2)CCN1` (stereo unspecified), the cytotoxicity at 70.5 h was -5.92%.

For the molecule `Cc1ccc2[nH]c(C3CCN(C)CC3)nc2c1`, the cytotoxicity at 70.5 h is 12.7%.

Consider `CCCN1CCCC(O)(c2nc(C)c(COc3ccccc3)s2)CC1` (stereo unspecified), for which the cytotoxicity at 70.5 h worked out at 13.4%.

For the molecule `CS(=O)(=O)N1CCCC(Cc2cnc(Br)cn2)C1` (stereo unspecified), the cytotoxicity at 70.5 h was determined as 22.6%.

For the molecule `CNc1cc(C(=O)N2CCOC(C(=O)NC3CCCC3)C2)ccn1` (stereo unspecified), the cytotoxicity at 70.5 h is -2.84%.

For the molecule `CN1CCCC(c2cncc(-c3cccc(C(F)(F)F)c3)n2)C1` (stereo unspecified), the cytotoxicity at 70.5 h was -8.63%.

Turning to `Cc1cc(C)nc(N2CCC(c3c(C(N)=O)sc4ccccc34)C2)n1` (stereo unspecified), the cytotoxicity at 70.5 h is -3.24%.

Take `CS(=O)(=O)N1C[C@@H](O)[C@H](N2CCN(c3ccccc3)CC2)C1`: the cytotoxicity at 70.5 h worked out at 22.6%.

Regarding `Cc1nnc(C2CCN(c3ncccn3)CC2)o1`, the cytotoxicity at 70.5 h is -15%.

For the molecule `NC(=O)c1ccc(C2CN(Cc3ccc(F)cc3)CCO2)nc1` (stereo unspecified), the cytotoxicity at 70.5 h turned out to be 27.6%.

For `c1ccc(Oc2nccnc2C2CCN(C3CCOCC3)CC2)cc1`, the cytotoxicity at 70.5 h was -7.7%.

On to `Cc1cc(C2CCCN(S(=O)(=O)N(C)C)C2)ccn1` (stereo unspecified), for which the cytotoxicity at 70.5 h stood at 23.8%.

Consider `CCCNC(=O)Nc1ncc(-c2cccnc2)s1`, for which the cytotoxicity at 70.5 h is -9.71%.

With `CC(C)NC(=O)Nc1ncc(-c2cccnc2)s1`, the cytotoxicity at 70.5 h was -4.04%.

As to `CNC(=O)c1cn[nH]c1C1CCCN1c1nc(C)cc(C)n1` (stereo unspecified), the cytotoxicity at 70.5 h was -3.88%.

In the case of `Cc1cnc(CC2COCCN(C(=O)CN3CCOCC3)C2)cn1` (stereo unspecified), the cytotoxicity at 70.5 h is -4.65%.

For the molecule `COc1ccc(CC2CN(Cc3cncn3C)CCO2)cc1` (stereo unspecified), the cytotoxicity at 70.5 h is -9.57%.

Consider `Cc1nc(N)cc(C2CN(C(=O)c3cscn3)CCO2)n1` (stereo unspecified), for which the cytotoxicity at 70.5 h is -10.9%.

As to `O=C(O)c1ccccc1-c1cnc(Cn2c(=O)cc[nH]c2=O)s1`, the cytotoxicity at 70.5 h is -6.43%.

On to `Cc1cc(C)nc(C2CCN(C3CCCCC3)C2)n1` (stereo unspecified), for which the cytotoxicity at 70.5 h was -5.66%.

Consider `CC(=O)N[C@@H]1CN(C(=O)Cc2coc3cc(C)ccc23)C[C@H]1O`, for which the cytotoxicity at 70.5 h was -2.72%.

Consider `CCn1ncc(C(=O)NCCc2nc(-c3cccnc3)n[nH]2)c1C`, for which the cytotoxicity at 70.5 h was -3.1%.

For the molecule `CCn1ncc(C(=O)NCCc2nc(-c3ccncc3)n[nH]2)c1C`, the cytotoxicity at 70.5 h was -7.04%.

With `CC(C)CC(NC(=O)c1cccs1)c1nc2cccnc2n1C` (stereo unspecified), the cytotoxicity at 70.5 h was -5.14%.

For the molecule `CC[C@H](Cn1ncc2ccccc2c1=O)NC(=O)c1cnc(C)cn1`, the cytotoxicity at 70.5 h was -12.4%.

Consider `CC[C@H](Cn1ncc2ccccc2c1=O)NC(=O)c1ccccn1`, for which the cytotoxicity at 70.5 h was -7.7%.

As for `CC[C@@H](Cn1ncc2ccccc2c1=O)NC(=O)c1cnc(C)cn1`, the cytotoxicity at 70.5 h is -6.57%.

Take `CNc1ncc(CN(C)CCN2CCCCC2)cn1`: the cytotoxicity at 70.5 h worked out at 36.6%.

Turning to `CC(C(=O)N(Cc1ccc(C#N)cc1)CC(F)(F)F)S(C)(=O)=O` (stereo unspecified), the cytotoxicity at 70.5 h is -10.1%.

For the molecule `Cc1nc(CNC(=O)NC2CC(C)(C)OC2(C)C)sc1C` (stereo unspecified), the cytotoxicity at 70.5 h is -9.18%.

For `Cc1ccc(-c2nc(CC(=O)NCC3CCCN(C(C)C)C3)cs2)o1` (stereo unspecified), the cytotoxicity at 70.5 h was 11.1%.

`O=C(CCC(=O)N1CCc2ccccc2C1)c1cccs1`: the cytotoxicity at 70.5 h was determined as 2.72%.

`COCc1nc(-c2ccc(S(=O)(=O)N3CCCC3)cc2)cs1`: the cytotoxicity at 70.5 h is -3.85%.

On to `CC(c1ccccc1F)N(CC(N)=O)C1CC1` (stereo unspecified), for which the cytotoxicity at 70.5 h is -4.03%.

With `CCC(=O)c1ccc(OCC(=O)NCC2CCCO2)cc1` (stereo unspecified), the cytotoxicity at 70.5 h came out at 0.0654%.

With `CN(Cc1ccc(F)c(F)c1)C(=O)CCc1nc(-c2nnc[nH]2)no1`, the cytotoxicity at 70.5 h was -4.47%.

As to `CCOCCNC(=O)c1cnc(Sc2nccn2C)c(Cl)c1`, the cytotoxicity at 70.5 h was found to be 2.36%.

`COCCN1CCC(CNc2nc3ccccc3o2)CC1`: the cytotoxicity at 70.5 h was found to be 1.47%.

As for `COCCN1CCC(CNc2cnc3ccccc3n2)CC1`, the cytotoxicity at 70.5 h is -1.83%.

With `CN1CCN(C(=O)c2cn(-c3ccc(C(F)(F)F)cn3)nn2)CC1`, the cytotoxicity at 70.5 h is -6.96%.

On to `CCN(CC)C(=O)c1cnc(Sc2nccn2C)c(Cl)c1`, for which the cytotoxicity at 70.5 h is -3.32%.

As for `CCc1ccc2c(c1)C(CCNC(=O)Cc1ccc(F)cc1)C(=O)N2` (stereo unspecified), the cytotoxicity at 70.5 h worked out at 11.8%.

`CCc1ccc2c(c1)C(CCNC(=O)Cc1cccc(F)c1)C(=O)N2` (stereo unspecified): the cytotoxicity at 70.5 h is -4.81%.

For the molecule `CC(c1ccccc1Cl)N(C(=O)CSCC(N)=O)C1CC1` (stereo unspecified), the cytotoxicity at 70.5 h is 12.5%.

On to `CN(CC1CC1)C(=O)c1cc2c(c(S(N)(=O)=O)c1)CCC2`, for which the cytotoxicity at 70.5 h stood at 2.25%.

Take `CCOc1cc(CNC(=O)NC2CC=CC2)ccc1OC(F)F`: the cytotoxicity at 70.5 h was -5.65%.

`Cc1ccc(-n2cc(C)cn2)c(NC(=O)NC2(C)CCOC2)c1` (stereo unspecified): the cytotoxicity at 70.5 h is -2.69%.

Turning to `CCOc1cccc(CNC(=O)NC2CC=CC2)c1OC(F)F`, the cytotoxicity at 70.5 h came out at 0.101%.

For the molecule `Cc1ccc(Cl)c(NC(=O)NC2(C)CCOC2)c1` (stereo unspecified), the cytotoxicity at 70.5 h was -5.5%.

Regarding `Cc1ccc(-n2nnnc2SCN2CCCCC2=O)cc1C`, the cytotoxicity at 70.5 h was -3.89%.

For the molecule `CCc1ccc(C(=O)N2CCC(N(C)C(=O)OC(C)(C)C)C2)o1` (stereo unspecified), the cytotoxicity at 70.5 h is 0.0812%.

As to `CN(Cc1ccccc1)C(=O)c1cc2c(c(S(N)(=O)=O)c1)CCC2`, the cytotoxicity at 70.5 h turned out to be 30.7%.

On to `Cc1ccc(CN(C)C(=O)c2cc3c(c(S(N)(=O)=O)c2)CCC3)o1`, for which the cytotoxicity at 70.5 h is -1.72%.

As for `NS(=O)(=O)c1ccc(NCc2ccccc2F)cc1C(F)(F)F`, the cytotoxicity at 70.5 h came out at 1.33%.

As for `Cc1cc(CN2CCN(Cc3ccc(C#N)cc3F)CC2)no1`, the cytotoxicity at 70.5 h stood at 1.27%.

Regarding `COc1ccc(NC(=O)N2CCN(CCSc3ccccc3)CC2)cc1`, the cytotoxicity at 70.5 h amounted to 3.81%.

As for `Cc1cc(C2CCCN2C(=O)c2csc(-c3cnn(C)c3)n2)on1` (stereo unspecified), the cytotoxicity at 70.5 h amounted to 2.44%.

With `CCn1cc(NC(=O)N2CCN(C(=O)Oc3ccccc3)CC2)cn1`, the cytotoxicity at 70.5 h is -4.12%.

Take `Cc1cc(C2CCCN2C(=O)Nc2cn[nH]c2)on1` (stereo unspecified): the cytotoxicity at 70.5 h is -4.06%.

`CS(=O)(=O)c1ccccc1-n1cc(NC(=O)CC(F)(F)F)cn1`: the cytotoxicity at 70.5 h is -4.54%.

On to `CC(C)(C)CC(=O)Nc1cnn(-c2ccccc2S(C)(=O)=O)c1`, for which the cytotoxicity at 70.5 h was -5.49%.

Take `CC(C)(C)C(=O)Nc1cnn(-c2ccccc2S(C)(=O)=O)c1`: the cytotoxicity at 70.5 h was -9.09%.

Regarding `CCc1ccc(S(=O)(=O)Nc2ccncc2)s1`, the cytotoxicity at 70.5 h was -5.81%.

As to `Cc1c(C[S+](C)[O-])cccc1NC(=O)c1cc(Cl)ccn1` (stereo unspecified), the cytotoxicity at 70.5 h was -2.39%.

As to `CN1CCN(C2CCN(CC(O)c3ccccc3F)CC2)C1=O` (stereo unspecified), the cytotoxicity at 70.5 h turned out to be 16.4%.

As for `N#Cc1cnc2c(F)cc(F)cc2c1NC1CCN(CC(N)=O)CC1`, the cytotoxicity at 70.5 h is -5.14%.

On to `CCc1ccc(S(=O)(=O)Nc2cnccc2C)s1`, for which the cytotoxicity at 70.5 h was -4.13%.

Take `CCS(=O)(=O)N1CCN(C(C)(C)CO)CC1`: the cytotoxicity at 70.5 h is -3.71%.

Regarding `CCn1c(C)cc(C(=O)Nc2ccccc2CN(C)C(C)=O)c1C`, the cytotoxicity at 70.5 h was -9.11%.

In the case of `CN(CC(C)(CO)CO)C(=O)Nc1cc(Cl)cc(Cl)c1`, the cytotoxicity at 70.5 h is -4.43%.

Consider `CN(Cc1ccc(Br)c2cccnc12)S(C)(=O)=O`, for which the cytotoxicity at 70.5 h stood at 12.8%.

For `OCCN(CCO)Cc1ccc(Br)c2cccnc12`, the cytotoxicity at 70.5 h was -1.86%.

Take `CC(NCCCN1CCCC1=O)c1cc(Br)ccc1F` (stereo unspecified): the cytotoxicity at 70.5 h was -5.24%.

`Cc1cc(CN2CCN(Cc3ccc(C#N)cc3OC(F)F)CC2)no1`: the cytotoxicity at 70.5 h stood at 18.7%.

`CCN(CCO)Cc1ccc(Br)c2cccnc12`: the cytotoxicity at 70.5 h is -1.88%.

In the case of `COc1ccccc1C(=O)N1CCNCC1C(N)=O` (stereo unspecified), the cytotoxicity at 70.5 h is -2.25%.

On to `COc1cccc2[nH]c(C(=O)N3CCNCC3C(N)=O)cc12` (stereo unspecified), for which the cytotoxicity at 70.5 h was 10.8%.

As to `Nc1ccc(-c2cnc(C3CCCN3)cn2)cn1` (stereo unspecified), the cytotoxicity at 70.5 h was -8.2%.

With `CS(=O)(=O)c1ccc(-c2cnc(C3CCCN3)cn2)cc1` (stereo unspecified), the cytotoxicity at 70.5 h was -11.3%.

Consider `Cc1nc(-c2ccccc2)cc(C2CCNCC2)n1`, for which the cytotoxicity at 70.5 h turned out to be 7.58%.

On to `CC(CN1CCOCC1)n1cncc1-c1ccc2c(c1)CCCN2C` (stereo unspecified), for which the cytotoxicity at 70.5 h was -10.1%.

In the case of `CC(=O)NC1CCN(c2cc(C3CCNCC3)ccn2)CC1`, the cytotoxicity at 70.5 h was -2.92%.

In the case of `CC(=O)N1CCC(N2CCC(c3nc(C)cc(C)n3)C2)CC1` (stereo unspecified), the cytotoxicity at 70.5 h was -3.99%.
